From the supplement of paper PMC7661543
± gives the standard deviation of the averaged measurements.

Key:
Test in all cases: relative cell number vs DMSO control (72 h) (% of DMSO); higher = less growth inhibition (more cells)
Conditions in all cases: sgRNA knockout: sgNT
ZR-75-1 = tested on: ZR-75-1
Procedure: (§1)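 QMAP-Seq: a pool of 5 breast cancer cell lines (ZR-75-1, SKBR3, HCC-38, MDA-MB-231, BT-20), each carrying 12 doxycycline-inducible Cas9 sgRNA perturbations (11 knockouts plus non-targeting sgNT), was treated with compounds for 72 h at four 10-fold doses (10 nM-10 uM or 1 nM-1 uM range). Barcodes were amplified and sequenced, and cell number was interpolated from 293T spike-in standard curves. The result is expressed as % of the median of DMSO wells. Two biological replicates.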

HCC-38 = tested on: HCC-38
Procedure: as §1

BT-20 = tested on: BT-20
Procedure: as §1

SKBR3 = tested on: SKBR3
Procedure: as §1

MDA-MB-231 = tested on: MDA-MB-231
Procedure: as §1

Row | Compound | relative cell number (ZR-75-1; 10 nM) | relative cell number (ZR-75-1; 100 nM) | relative cell number (ZR-75-1; 1000 nM) | relative cell number (ZR-75-1; 10000 nM) | relative cell number (HCC-38; 10 nM) | relative cell number (HCC-38; 100 nM) | relative cell number (HCC-38; 1000 nM) | relative cell number (HCC-38; 10000 nM) | relative cell number (BT-20; 10 nM) | relative cell number (BT-20; 100 nM) | relative cell number (BT-20; 1000 nM) | relative cell number (BT-20; 10000 nM) | relative cell number (SKBR3; 10 nM) | relative cell number (SKBR3; 100 nM) | relative cell number (SKBR3; 1000 nM) | relative cell number (SKBR3; 10000 nM) | relative cell number (MDA-MB-231; 10 nM) | relative cell number (MDA-MB-231; 100 nM) | relative cell number (MDA-MB-231; 1000 nM) | relative cell number (MDA-MB-231; 10000 nM) | relative cell number (ZR-75-1; 1 nM) | relative cell number (HCC-38; 1 nM) | relative cell number (BT-20; 1 nM) | relative cell number (SKBR3; 1 nM) | relative cell number (MDA-MB-231; 1 nM)
1 | O=P1(N(CCCl)CCCl)NCCCO1 (stereo not given) [Cyclophosphamide] | 83.2 ± 52 | 111 ± 50 | 81.3 ± 37 | 89 ± 21 | 89.7 ± 13 | 86.8 ± 5.3 | 93.6 ± 5.8 | 94.7 ± 8.6 | 81.2 ± 1.5 | 114 ± 0.31 | 107 ± 5.6 | 114 ± 8.3 | 88.4 ± 22 | 86.2 ± 26 | 102 ± 19 | 93.3 ± 7.1 | 96.1 ± 29 | 134 ± 22 | 74 ± 11 | 136 ± 10 |  |  |  |  | 
2 | CC(C)(C)c1nc(-c2cccc(NS(=O)(=O)c3c(F)cccc3F)c2F)c(-c2ccnc(N)n2)s1 [Dabrafenib] | 129 ± 31 | 128 ± 3.2 | 119 ± 46 | 76.8 ± 7.1 | 141 ± 32 | 96.9 ± 5.1 | 93.8 ± 4.2 | 94.7 ± 7.9 | 134 ± 10 | 116 ± 16 | 109 ± 12 | 112 ± 1.6 | 133 ± 3.3 | 121 ± 1.7 | 96.5 ± 9.5 | 104 ± 14 | 106 ± 7.5 | 137 ± 23 | 91.8 ± 27 | 115 ± 10 |  |  |  |  | 
3 | CN(C)/N=N/c1[nH]cnc1C(N)=O [Dacarbazine] | 89.3 ± 32 | 87.7 ± 18 | 93.4 ± 33 | 94.9 ± 2.4 | 96.4 ± 9.5 | 85 ± 22 | 90.4 ± 13 | 96.1 ± 20 | 73.1 ± 11 | 96.3 ± 16 | 108 ± 13 | 88.5 ± 26 | 89.1 ± 21 | 91.8 ± 8.6 | 86.9 ± 3.4 | 106 ± 30 | 95 ± 23 | 132 ± 22 | 125 ± 38 | 69.2 ± 6.3 |  |  |  |  | 
4 | Cc1nc(Nc2ncc(C(=O)Nc3c(C)cccc3Cl)s2)cc(N2CCN(CCO)CC2)n1 [Dasatinib] | 107 ± 27 | 75.8 ± 34 | 65.4 ± 11 | 35.9 ± 0.91 | 96.2 ± 12 | 66.2 ± 9.8 | 65.7 ± 4.4 | 32.9 ± 2.9 | 72.1 ± 28 | 82.2 ± 4.3 | 105 ± 1.7 | 63.9 ± 7.7 | 53.8 ± 31 | 96.7 ± 42 | 107 ± 28 | 41.6 ± 1.3 | 100 ± 5.3 | 53.1 ± 6.1 | 56 ± 14 | 13.8 ± 4.3 |  |  |  |  | 
5 | Nc1ncn([C@H]2C[C@H](O)[C@@H](CO)O2)c(=O)n1 [Decitabine] | 119 ± 23 | 54.9 ± 30 | 51.2 ± 7.2 | 40.4 ± 17 | 98.2 ± 27 | 80.8 ± 14 | 49.3 ± 4.6 | 35.6 ± 3.4 | 92.6 ± 11 | 83 ± 5.8 | 75.7 ± 17 | 50.5 ± 15 | 104 ± 76 | 68.3 ± 37 | 55.4 ± 22 | 45.9 ± 16 | 83 ± 13 | 78.2 ± 10 | 31.2 ± 4.4 | 19.9 ± 0.36 |  |  |  |  | 
6 | COC(=O)/C=C/C(=O)OC [DimethylFumarate] | 95.9 ± 36 | 120 ± 19 | 97.7 ± 76 | 81.2 ± 38 | 104 ± 17 | 81.6 ± 2.4 | 91.4 ± 7.1 | 91.3 ± 20 | 105 ± 18 | 98.2 ± 2.9 | 86.1 ± 15 | 84.8 ± 1.5 | 112 ± 23 | 98.3 ± 3 | 86.2 ± 8.6 | 78.2 ± 16 | 107 ± 36 | 88.3 ± 9.9 | 91.2 ± 7.2 | 98.8 ± 16 |  |  |  |  | 
7 | COc1cccc2c1C(=O)c1c(O)c3c(c(O)c1C2=O)C[C@@](O)(C(=O)CO)C[C@@H]3O[C@H]1C[C@H](N)[C@H](O)[C@H](C)O1 [Doxorubicin] | 50 ± 9.8 | 31.7 ± 2.4 | 22.2 ± 16 | 10 ± 4.1 | 74 ± 5.4 | 38.3 ± 2.5 | 17.2 ± 3.1 | 10.8 ± 3.9 | 83 ± 11 | 46 ± 1.4 | 29.9 ± 5.7 | 16.4 ± 4.5 | 82.6 ± 29 | 34.4 ± 8.3 | 15 ± 6.8 | 6.86 ± 0.49 | 75.6 ± 18 | 19.3 ± 8.7 | 20.3 ± 0.47 | 7.68 ± 2.6 |  |  |  |  | 
8 | Nc1ccccc1NC(=O)c1ccc(CNC(=O)OCc2cccnc2)cc1 [Entinostat] | 75.3 ± 4.2 | 103 ± 25 | 32.6 ± 24 | 36.1 ± 11 | 106 ± 1.9 | 105 ± 3.4 | 64.8 ± 13 | 36.8 ± 3.2 | 105 ± 2.6 | 103 ± 22 | 50.9 ± 7.8 | 19 ± 12 | 76.3 ± 10 | 102 ± 18 | 30.3 ± 5.2 | 5.86 ± 2 | 90.4 ± 17 | 115 ± 39 | 39.4 ± 5.7 | 12.5 ± 5.6 |  |  |  |  | 
9 | CN1CCN(c2ccc(C(=O)Nc3n[nH]c4ccc(Cc5cc(F)cc(F)c5)cc34)c(NC3CCOCC3)c2)CC1 [Entrectinib] | 105 ± 44 | 73 ± 13 | 85.7 ± 8.3 |  | 96.6 ± 2.2 | 89.3 ± 23 | 79.1 ± 6.5 |  | 97.9 ± 13 | 91.6 ± 1.3 | 92.9 ± 5.6 |  | 113 ± 3.7 | 82.9 ± 36 | 95 ± 19 |  | 101 ± 9.8 | 93.3 ± 6.3 | 105 ± 6.8 |  | 73.5 ± 22 | 90.4 ± 11 | 102 ± 28 | 113 ± 7.7 | 86.7 ± 26
10 | CCOc1ccccc1-n1c(C(C)N2CCN(C(=O)COc3ccc(Cl)cc3)CC2)nc2ccccc2c1=O (stereo not given) [Erastin] | 99.6 ± 21 | 89.4 ± 42 | 81.3 ± 20 | 60.6 ± 13 | 97.1 ± 7.7 | 103 ± 9.8 | 99.2 ± 13 | 60.1 ± 4.2 | 122 ± 20 | 84.4 ± 8.1 | 99.8 ± 1.4 | 40 ± 1.6 | 111.3 ± 0.82 | 85.9 ± 42 | 118 ± 53 | 46 ± 11 | 90.4 ± 8.9 | 103 ± 30 | 87.6 ± 4.9 | 25.1 ± 4.8 |  |  |  |  | 
